Test results as given in ChEMBL document CHEMBL1141330, “Vanillic acid derivatives from the green algae Cladophora socialis as potent protein tyrosine phosphatase 1B inhibitors” (J Nat Prod, 2007).

Molecular target: T1, Tyrosine-protein phosphatase non-receptor type 1 (Homo sapiens, UniProt P18031)
T1 sequence (P18031 whole entry): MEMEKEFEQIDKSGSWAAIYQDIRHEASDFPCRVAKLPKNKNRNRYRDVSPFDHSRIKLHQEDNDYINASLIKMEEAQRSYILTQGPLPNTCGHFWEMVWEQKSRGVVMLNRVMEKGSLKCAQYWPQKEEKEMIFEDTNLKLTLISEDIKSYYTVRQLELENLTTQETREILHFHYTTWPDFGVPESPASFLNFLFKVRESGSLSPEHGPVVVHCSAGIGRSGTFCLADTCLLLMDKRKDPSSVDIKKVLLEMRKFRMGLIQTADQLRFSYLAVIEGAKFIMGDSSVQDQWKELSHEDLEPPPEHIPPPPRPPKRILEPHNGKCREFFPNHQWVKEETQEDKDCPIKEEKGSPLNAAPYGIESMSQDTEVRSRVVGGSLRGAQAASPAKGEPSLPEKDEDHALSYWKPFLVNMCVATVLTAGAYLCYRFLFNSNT
Assay: Inhibition of PTP1B

| Compound | IC50 [nM] |
| --- | --- |
| O=C(O)c1cc2oc3c(Oc4ccc(-c5ccc(O)c(O)c5)cc4O)cc(O)cc3c2cc1O | 3710 |
| O=C(O)c1cc2oc3c(Oc4ccc(-c5ccc(OS(=O)(=O)O)c(O)c5)cc4O)cc(O)cc3c2cc1O | 1700 |
